Data: ChEMBL document CHEMBL1201862, “PubChem BioAssay data set” (2004)
Activity calls are given as the source filed them.

What was measured:
H4 = test: Luminescence Cell-Based Dose Response HTS to Identify Activators of 5'UTR Stem-Loop Driven Prion Protein mRNA Translation in H4 Neuroglioblastoma Cells. [Related pubchem assays: 1829 (Project Summary), 1814 (Primary HTS)]; assay type: functional; conditions: Homo sapiens
[1] = Luminescence Cell-Based Dose Response HTS to Identify Activators of Luciferase Translation or Activity in H4 […] Cells. [Related pubchem assays: 1829 (Project Summary), 1814 (Primary HTS)]; assay type: functional
[2] = Luminescence Cell-Based Dose Confirmation HTS to Identify Activators of 5'UTR Stem-Loop Driven Alpha-Synuclein mRNA Translation in H4 Neuroglioblastoma Cells. [Related pubchem assays: 1829 (Project Summary), 1814 (Primary HTS)]; assay type: functional
[3] = biological target: T1, Corticotropin-releasing factor receptor 2/Corticotropin-releasing factor-binding protein (Homo sapiens, UniProt P24387+Q13324); test: Dose Response confirmation of uHTS hits for small molecule antagonists of the CRF-binding protein and CRF-R2 receptor complex.; assay type: functional; conditions: read-out: IC50_Mean
T1 sequence (Q13324 whole entry): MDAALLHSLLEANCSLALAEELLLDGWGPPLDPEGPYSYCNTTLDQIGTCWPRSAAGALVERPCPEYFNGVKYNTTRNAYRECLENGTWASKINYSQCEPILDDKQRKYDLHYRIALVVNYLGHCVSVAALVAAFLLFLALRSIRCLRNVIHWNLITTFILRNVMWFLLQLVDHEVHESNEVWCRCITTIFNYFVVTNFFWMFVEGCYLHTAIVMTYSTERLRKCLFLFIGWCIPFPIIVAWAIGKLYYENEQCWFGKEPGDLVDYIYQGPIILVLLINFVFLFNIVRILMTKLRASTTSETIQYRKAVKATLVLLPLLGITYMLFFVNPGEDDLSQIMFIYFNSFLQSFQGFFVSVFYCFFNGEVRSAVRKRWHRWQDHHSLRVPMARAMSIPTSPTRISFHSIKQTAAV
T1 sequence (P24387 whole entry): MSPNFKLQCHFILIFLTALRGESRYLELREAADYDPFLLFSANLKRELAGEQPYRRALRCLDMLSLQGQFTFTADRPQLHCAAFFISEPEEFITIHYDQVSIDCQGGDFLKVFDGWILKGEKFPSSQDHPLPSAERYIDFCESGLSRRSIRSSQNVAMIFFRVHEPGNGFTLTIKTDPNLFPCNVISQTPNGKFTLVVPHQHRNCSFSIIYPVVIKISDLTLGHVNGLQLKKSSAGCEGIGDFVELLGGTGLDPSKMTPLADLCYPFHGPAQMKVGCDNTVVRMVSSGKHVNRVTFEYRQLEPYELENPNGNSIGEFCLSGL

[4] = biological target: T1, Corticotropin-releasing factor receptor 2/Corticotropin-releasing factor-binding protein; test: activators of CRF receptor 2 with binding protein – uHTS hits, confirmation (AID 602473); assay type: functional; conditions: read-out: EC50_Mean
Cytochrome P450 3A4 = Cytochrome P450 3A4 (Homo sapiens, UniProt P08684);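 note: CYP3A4 tested as one member of a cytochrome P450 panel screen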
Cytochrome P450 2D6 = Cytochrome P450 2D6 (Homo sapiens, UniProt P10635);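 note: CYP2D6 member of a cytochrome P450 panel assay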
Cytochrome P450 1A2 = biological target: T2, Cytochrome P450 1A2 (Homo sapiens, UniProt P05177);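 note: PubChem cytochrome P450 panel assay, CYP1A2 panel member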
T2 sequence (P05177 whole entry): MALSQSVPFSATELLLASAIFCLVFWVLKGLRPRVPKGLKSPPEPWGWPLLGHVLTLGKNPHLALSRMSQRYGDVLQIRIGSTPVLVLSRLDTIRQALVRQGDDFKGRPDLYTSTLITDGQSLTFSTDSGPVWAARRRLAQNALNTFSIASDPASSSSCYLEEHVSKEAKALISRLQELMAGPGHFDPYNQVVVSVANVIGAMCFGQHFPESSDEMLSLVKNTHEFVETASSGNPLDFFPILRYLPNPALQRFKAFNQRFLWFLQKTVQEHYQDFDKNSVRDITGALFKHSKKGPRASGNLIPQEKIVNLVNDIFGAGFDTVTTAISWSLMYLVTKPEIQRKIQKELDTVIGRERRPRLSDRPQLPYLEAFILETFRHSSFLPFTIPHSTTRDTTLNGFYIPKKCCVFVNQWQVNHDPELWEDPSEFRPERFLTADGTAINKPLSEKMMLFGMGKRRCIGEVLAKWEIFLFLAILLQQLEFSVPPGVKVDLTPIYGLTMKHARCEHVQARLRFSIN

[5] = control 3'UTR Renilla luciferase suppression, dose response, counter-screen for Shn3 inhibitor project, cell-based, Clone20-Shn3RL, cherry-picked (AID 624133); assay type: functional
[6] = biological target: Heat shock protein HSP 90-alpha (Homo sapiens, UniProt P07900); assay type: functional, organism-based
Cytochrome P450 2C9 = Cytochrome P450 2C9 (Homo sapiens, UniProt P11712)
Cytochrome P450 2C19 = Cytochrome P450 2C19 (Homo sapiens, UniProt P33261); test: Cytochrome panel assay with activity outcomes. Panel member name: p450-cyp2c19 Compounds with AC50 equal or less than 10 uM are considered active; assay type: functional; conditions: read-out: AC50
[7] = cytotoxicity toward NIH3T3 fibroblasts, dose response, counter-screen, cell-based, ATP luminescence, mouse fibroblasts (AID 2010); assay type: functional;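 note: cells exposed to compound for about 90 hours before reading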
[8] = inhibitors of intracellular T. cruzi replication, confirmation, NIH3T3 host cells, beta-gal luminescence (AID 2044); assay type: functional, cell-based;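 note: intracellular parasites grown in NIH/3T3 mouse fibroblasts as host cells; luminescent beta-galactosidase reporter signal from transgenic T. cruzi replicating inside host cells; inhibitors lower the luminescence signal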
Protein RecA = biological target: T3, Protein RecA (Mycobacterium tuberculosis, UniProt P9WHJ3); test: Fluorescence Cell-Free Homogeneous Dose Retest to Identify Inhibitors of RecA-Intein Splicing Activity. [Related pubchem assays (depositor defined):AID2097, AID2223, AID489010, AID492950]; assay type: functional
T3 sequence (P9WHJ3 whole entry): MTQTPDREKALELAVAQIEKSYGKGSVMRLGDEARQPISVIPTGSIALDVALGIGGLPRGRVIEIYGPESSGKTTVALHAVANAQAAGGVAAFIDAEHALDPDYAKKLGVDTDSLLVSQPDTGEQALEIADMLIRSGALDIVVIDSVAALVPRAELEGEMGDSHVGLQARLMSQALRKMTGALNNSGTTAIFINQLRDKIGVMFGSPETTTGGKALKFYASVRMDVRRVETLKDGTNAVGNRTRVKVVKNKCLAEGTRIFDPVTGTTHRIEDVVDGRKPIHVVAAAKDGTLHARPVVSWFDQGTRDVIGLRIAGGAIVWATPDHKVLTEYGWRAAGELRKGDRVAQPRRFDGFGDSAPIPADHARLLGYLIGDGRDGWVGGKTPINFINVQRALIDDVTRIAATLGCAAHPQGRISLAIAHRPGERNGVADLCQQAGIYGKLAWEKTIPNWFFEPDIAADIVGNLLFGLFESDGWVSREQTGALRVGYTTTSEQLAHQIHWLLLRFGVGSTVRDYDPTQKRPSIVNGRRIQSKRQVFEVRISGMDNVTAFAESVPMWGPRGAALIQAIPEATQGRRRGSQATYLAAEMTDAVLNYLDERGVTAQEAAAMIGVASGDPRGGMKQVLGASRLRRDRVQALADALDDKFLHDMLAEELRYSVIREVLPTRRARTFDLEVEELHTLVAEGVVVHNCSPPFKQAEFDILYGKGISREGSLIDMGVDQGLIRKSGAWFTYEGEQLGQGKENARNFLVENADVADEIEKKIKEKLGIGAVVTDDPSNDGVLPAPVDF

[9] = biological target: T4, Replicative DNA helicase DnaB (Mycobacterium tuberculosis, UniProt P9WMR3); test: DnaB intein splicing inhibitors, dose response, biochemical, cell-free fluorescence (AID 449749); assay type: functional
T4 sequence (P9WMR3 whole entry): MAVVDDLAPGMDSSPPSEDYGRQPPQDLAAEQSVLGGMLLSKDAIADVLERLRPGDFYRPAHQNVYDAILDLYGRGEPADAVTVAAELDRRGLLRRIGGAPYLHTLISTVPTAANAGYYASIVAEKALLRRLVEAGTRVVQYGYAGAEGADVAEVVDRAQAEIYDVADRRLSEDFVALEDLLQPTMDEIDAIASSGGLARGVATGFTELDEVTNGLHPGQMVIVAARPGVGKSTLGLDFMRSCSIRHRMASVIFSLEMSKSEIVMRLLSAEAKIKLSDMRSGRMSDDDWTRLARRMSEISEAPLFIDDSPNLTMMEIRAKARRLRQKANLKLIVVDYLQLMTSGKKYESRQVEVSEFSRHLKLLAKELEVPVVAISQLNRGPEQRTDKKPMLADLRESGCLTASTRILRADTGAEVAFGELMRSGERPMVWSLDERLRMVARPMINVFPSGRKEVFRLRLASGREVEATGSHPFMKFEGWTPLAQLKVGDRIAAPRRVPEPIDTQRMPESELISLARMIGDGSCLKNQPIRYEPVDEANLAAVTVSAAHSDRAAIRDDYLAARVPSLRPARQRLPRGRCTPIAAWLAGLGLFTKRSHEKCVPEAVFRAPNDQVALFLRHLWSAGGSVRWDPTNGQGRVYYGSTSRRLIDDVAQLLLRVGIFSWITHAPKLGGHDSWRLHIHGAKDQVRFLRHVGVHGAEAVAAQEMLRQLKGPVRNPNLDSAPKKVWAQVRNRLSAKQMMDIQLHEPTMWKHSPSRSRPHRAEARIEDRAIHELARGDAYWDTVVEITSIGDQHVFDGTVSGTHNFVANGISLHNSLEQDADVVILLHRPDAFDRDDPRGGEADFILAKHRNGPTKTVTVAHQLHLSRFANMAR

Sequence of Cytochrome P450 2D6 (P10635 whole entry): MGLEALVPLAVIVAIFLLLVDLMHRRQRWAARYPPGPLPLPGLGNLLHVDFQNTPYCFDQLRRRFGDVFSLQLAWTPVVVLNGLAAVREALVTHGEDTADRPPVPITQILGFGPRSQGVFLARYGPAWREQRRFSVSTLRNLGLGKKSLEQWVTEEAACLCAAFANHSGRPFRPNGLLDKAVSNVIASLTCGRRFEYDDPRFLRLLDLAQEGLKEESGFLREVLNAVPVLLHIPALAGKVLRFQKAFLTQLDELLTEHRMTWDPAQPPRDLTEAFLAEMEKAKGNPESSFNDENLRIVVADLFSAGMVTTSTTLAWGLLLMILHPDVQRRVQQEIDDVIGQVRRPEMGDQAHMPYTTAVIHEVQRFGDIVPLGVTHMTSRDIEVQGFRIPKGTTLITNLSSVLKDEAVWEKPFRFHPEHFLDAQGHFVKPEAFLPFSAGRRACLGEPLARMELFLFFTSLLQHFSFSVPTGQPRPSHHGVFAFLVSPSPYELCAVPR
Sequence of Cytochrome P450 3A4 (P08684 whole entry): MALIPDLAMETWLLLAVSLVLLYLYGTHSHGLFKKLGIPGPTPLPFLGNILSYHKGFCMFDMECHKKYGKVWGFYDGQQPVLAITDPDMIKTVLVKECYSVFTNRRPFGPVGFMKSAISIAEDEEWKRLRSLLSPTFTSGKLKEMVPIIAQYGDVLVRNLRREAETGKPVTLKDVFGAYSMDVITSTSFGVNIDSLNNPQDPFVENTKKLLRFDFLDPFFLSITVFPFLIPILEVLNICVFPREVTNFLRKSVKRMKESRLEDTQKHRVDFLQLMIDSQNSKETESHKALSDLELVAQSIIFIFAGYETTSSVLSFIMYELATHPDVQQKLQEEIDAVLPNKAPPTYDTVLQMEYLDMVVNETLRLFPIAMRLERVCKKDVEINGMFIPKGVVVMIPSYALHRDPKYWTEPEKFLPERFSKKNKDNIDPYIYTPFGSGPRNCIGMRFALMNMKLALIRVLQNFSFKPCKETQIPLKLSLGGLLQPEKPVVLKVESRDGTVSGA
Sequence of Cytochrome P450 2C9 (P11712 whole entry): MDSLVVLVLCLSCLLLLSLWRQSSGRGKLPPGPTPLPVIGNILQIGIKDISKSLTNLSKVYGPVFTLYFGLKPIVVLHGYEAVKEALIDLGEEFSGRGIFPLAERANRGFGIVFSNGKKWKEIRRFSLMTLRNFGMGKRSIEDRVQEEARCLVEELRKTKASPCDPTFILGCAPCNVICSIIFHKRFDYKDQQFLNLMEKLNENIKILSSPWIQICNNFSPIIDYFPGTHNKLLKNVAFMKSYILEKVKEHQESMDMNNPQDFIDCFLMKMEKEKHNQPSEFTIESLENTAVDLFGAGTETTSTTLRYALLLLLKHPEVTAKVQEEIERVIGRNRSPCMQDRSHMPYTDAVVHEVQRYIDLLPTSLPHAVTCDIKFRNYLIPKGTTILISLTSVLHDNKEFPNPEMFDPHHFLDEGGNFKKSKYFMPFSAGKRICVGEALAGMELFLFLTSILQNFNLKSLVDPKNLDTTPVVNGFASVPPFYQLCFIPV
Sequence of Cytochrome P450 2C19 (P33261 whole entry): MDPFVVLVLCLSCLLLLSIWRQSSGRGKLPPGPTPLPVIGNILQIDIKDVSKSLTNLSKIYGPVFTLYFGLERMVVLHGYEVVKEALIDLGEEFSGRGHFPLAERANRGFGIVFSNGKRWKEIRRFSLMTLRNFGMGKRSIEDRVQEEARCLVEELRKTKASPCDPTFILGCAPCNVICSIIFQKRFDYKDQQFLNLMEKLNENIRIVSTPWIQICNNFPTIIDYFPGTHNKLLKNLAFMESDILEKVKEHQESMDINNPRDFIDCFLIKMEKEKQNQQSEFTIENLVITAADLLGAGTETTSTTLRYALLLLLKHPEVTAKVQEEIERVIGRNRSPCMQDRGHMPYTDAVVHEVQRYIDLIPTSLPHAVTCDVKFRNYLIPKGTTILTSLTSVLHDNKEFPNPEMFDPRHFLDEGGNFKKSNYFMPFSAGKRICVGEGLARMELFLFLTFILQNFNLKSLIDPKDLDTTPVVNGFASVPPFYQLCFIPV

CCCOc1ccc(OCCSc2nnc(N)s2)cc1
EC50 (H4): 15.2 µM (active)
EC50 [1]: 15 µM (active)
EC50 [2]: 23.1 µM (active)

CC(C)(C)C(=O)NC(=S)NCCc1ccccc1
IC50 [3]: > 47.1 µM (inactive)
EC50 [4]: > 53 µM (inactive)
AC50 (Cytochrome P450 3A4): 25.1 µM (inconclusive)

O=C(CSCC(=O)OCn1nnc2ccccc2c1=O)Nc1ccc(Cl)cc1
AC50 (Cytochrome P450 2D6): 25.1 µM (inconclusive)
AC50 (Cytochrome P450 1A2): 25.1 µM (inconclusive)

N#CC1=C(N)Oc2cc(N)ccc2C1C1CCCCC1 (configuration not stated)
EC50 (H4): > 120 µM (not active)
EC50 [1]: > 120 µM (not active)
EC50 [2]: > 120 µM (not active)

CC1(C)c2[nH]c3ccccc3c2C[C@H]2C(=O)N(Cc3ccccc3)C(=O)N21
IC50 [3]: > 47.1 µM (inactive)
EC50 [4]: > 53 µM (inactive)

Cc1cc(C)cc(C(=O)NCC(=O)OCC(=O)NCC(F)(F)F)c1
AC50 [5]: 9.91 µM (active)

O=[N+]([O-])c1ccc(O)c(C2CCCCC2)c1
AC50 [6]: 8.09 µM (active)

COc1cc2c(cc1NC(=O)CSc1ccccn1)oc1ccccc12
EC50 (H4): 30.4 µM (active)
EC50 [1]: 15 µM (active)
EC50 [2]: 10.9 µM (active)

O=C1NC(c2cccc([N+](=O)[O-])c2)=CCN1c1ccccc1O [ICILLIN]
AC50 (Cytochrome P450 2D6): 20 µM (inconclusive)
AC50 (Cytochrome P450 1A2): 31.6 µM (inconclusive)

c1ccc(CCn2nnnc2CN2CCCc3ccccc32)cc1
EC50 [4]: > 53 µM (inactive)

CC(=O)c1cc(-c2ccccc2)n(CC(=O)NC2CCCC2)c1C
EC50 (H4): > 120 µM (not active)
EC50 [1]: > 120 µM (not active)
EC50 [2]: > 120 µM (not active)

CSc1nc2ccc(S(=O)(=O)NC3CCCCC3)cc2s1
AC50 [6]: 8.57 µM (active)

C#CCCCC(=S)Nc1ccccc1
AC50 (Cytochrome P450 2D6): 39.8 µM (inconclusive)
AC50 (Cytochrome P450 2C9): 39.8 µM (inconclusive)
AC50 (Cytochrome P450 2C19): 39.8 µM (inconclusive)
AC50 (Cytochrome P450 3A4): 25.1 µM (inconclusive)

COc1ccc(CC(=O)Nc2cccc(-c3nnc(-c4ccco4)o3)c2)cc1
AC50 (Cytochrome P450 2D6): 20 µM (inconclusive)
AC50 (Cytochrome P450 1A2): 15.8 µM (inconclusive)

CCOC(=O)C1CCCN(C(=O)c2cccc(S(=O)(=O)N(Cc3ccccc3)c3ccccc3OC)c2)C1 (configuration not stated)
IC50 [3]: > 47.1 µM (inactive)
EC50 [7]: 35.2 µM (active)
EC50 [8]: 3.84 µM (active)
EC50 [4]: > 53 µM (inactive)

COc1ccc(OCC(O)CN2CCc3ccccc3C2)cc1 (configuration not stated)
IC50 [3]: > 47.1 µM (inactive)
EC50 [4]: > 53 µM (inactive)

Cc1ccc(C2CN=NC23CCc2ccccc2C3=O)cc1 (configuration not stated)
EC50 (H4): > 120 µM (not active)
EC50 [1]: 23.9 µM (active)
EC50 [2]: 15.3 µM (active)

CC(C)(C)c1nc(CN2CCCCC2)cc(CN2CCCCC2)c1O
IC50 [3]: > 47.1 µM (inactive)
EC50 [4]: > 53 µM (inactive)

CCOC(=O)c1ccccc1N/C=C1\CCCCC1=O
AC50 (Cytochrome P450 2D6): 35.5 µM (inconclusive)
AC50 (Cytochrome P450 2C9): 39.8 µM (inconclusive)

COc1ccccc1-n1ccnc(SCC(=O)NCc2ccccc2Cl)c1=O
AC50 [5]: 13 µM (active)

CC(Sc1nnc(Cc2cccs2)n1C1CC1)C(=O)NC1CCS(=O)(=O)C1 (configuration not stated)
IC50 [3]: > 47.1 µM (inactive)
EC50 [4]: > 53 µM (inactive)

COc1ccc(OC(=O)c2ccc(Cl)cc2)c(C(C)=O)c1
IC50 [3]: > 47.1 µM (inactive)
EC50 [4]: > 53 µM (inactive)

Oc1cc(-c2ccc(C3CCCCC3)cc2)[nH]n1
AC50 [6]: 8 µM (active)
EC50 (Protein RecA): 1.01 µM (active)
AC50 [9]: 1.99 µM (active)
